These results are taken from patent US12673945B2, “3-((8-((1H-pyrazol-4-yl)amino)imidazo[1,2-a]pyridin-3-yl)ethinyl)-n-phenylbenzamide derivative, method for preparing same, and pharmaceutical composition containing same as active ingredient for prevention or treatment of cancer” (DAEGU-GYEONGBUK MEDICAL INNOVATION FOUNDATION, priority 2020, dated 2026).

Common to all, as to type: cell-based
One experiment concerns Parental (Ba/F3). Briefly: Ba/F3 cell proliferation inhibition. The following applies: BaF3; 72 hours, Cell Counting Kit-8. The method, then:
(§1) […] lymphocyte cells, Parental (Ba/F3) and T315I-Bcr-Abl (Ba/F3) were seeded in 96-well plates at the density of 1×10^4/90 μL/well. A culture solution containing 9 concentrations (0.015 to 100 μM) of each example compound serially diluted in 3 folds or DMSO (control) were added to the plate ([…]) to a final concentration of 0 to 10 μM. The plate was incubated in a 37° C. CO2 incubator for 72 hours.
(§2) After incubation for 72 hours, the plate treated with the compound was treated with Cell Counting Kit-8 (Dojindo Molecular Technologies, Inc) solution at the concentration of 10 μL/well, and then mixed well. Then, the plate was incubated in a CO2 incubator at 37° C. for 2 hours, and absorbance at 450 nm was measured with a microplate reader. Data were expressed as percentage compared to vehicle treated cells and GI50 values were calculated using GraphPad Prism 5.0 (GraphPad software Inc., San Diego) […].
In general terms: Tetrazolium dyes change colour on reduction, which living cells bring about.

The test system of the next experiment is T315I-Bcr-Abl (Ba/F3). Briefly: Ba/F3 cell proliferation inhibition. Conditions: BaF3; 72 hours, Cell Counting Kit-8. The method, then: as §1, §2
The test system of a further experiment is KOPM28 cells. Briefly: human CML cell proliferation inhibition. The following applies: 72 hours, Cell Counting Kit-8. The procedure: (§3) In order to evaluate the therapeutic effect of the compound according to the present invention on chronic myelogenous leukemia (CML), the following experiment was performed, and the results are shown in Table 6 below. Inhibitory activity to Bcr-Abl kinase was evaluated through the experiment using TCCS and KOPM28 cells, and inhibitory activity to T315I-Bcr-Abl kinase was evaluated through the experiment using T315I-TCCS and T315I-KOPM28 cells.
(§4) Human chronic myelogenous leukemia (CML) cells used in the experiment were TCCS, T315I-TCCS, KOPM28 and T315I-KOPM28, and the four types of cells were provided by University of Yamanashi.
(§5) Four types of human CML cells were each seeded in 96-well plates at the density of 1×10^4/90 μL/well. A culture solution containing 9 concentrations (0.000256 to 100 μM) of each example compound serially diluted in 5 folds or DMSO (control) were added to the plate (10 μL/well) to a final concentration of 0 to 10 μM. The plate was incubated in a 37° C. CO2 incubator for 72 hours.
(§6) After incubation for 72 hours, the plate treated with the compound was treated with Cell Counting Kit-8 (Dojindo Molecular Technologies, Inc) solution at the concentration of 10 μL/well, and then mixed well. Then, the plate was incubated in a CO2 incubator at 37° C. for 2 hours, and absorbance at 450 nm was measured with a microplate reader. Data were expressed as percentage compared to vehicle treated cells and GI50 values were calculated using GraphPad Prism 8.0 (GraphPad software Inc., San Diego).

In another experiment the test system is TCCS cells. Briefly: human CML cell proliferation inhibition. Conditions: 72 hours, Cell Counting Kit-8. The method, then:
as §3, §4, §5, §6

Another experiment has as its system T315I-KOPM28 cells. Kind of experiment: human CML cell proliferation inhibition. Conditions: 72 hours, Cell Counting Kit-8. The procedure: as §3, §4, §5, §6
Another experiment relates to T315I-TCCS cells. Briefly: human CML cell proliferation inhibition. The following applies: 72 hours, Cell Counting Kit-8. The method, then: as §3, §4, §5, §6

In the case of `Cc1cn(-c2cc(NC(=O)c3cc(C#Cc4cnc5c(Nc6cnn(C)c6)cccn45)c(C)cc3Cl)cc(C(C)(C)C#N)c2)cn1` [Example 13, 2-chloro-N-(3-(2-cyanopropan-2-yl)-5-(4-methyl-1H-imidazol-1-yl)phenyl)-4-methyl-5-((8-((1-methyl-1H-pyrazol-4-yl)amino)imidazo[1,2-a]pyridin-3-yl)ethynyl)benzamide], the GI50 was over 5000 nM with Parental (Ba/F3); under 50 nM with T315I-Bcr-Abl (Ba/F3); under 10 nM in the experiment on KOPM28 cells; under 10 nM in the experiment with TCCS cells; 100 nM in the experiment with T315I-KOPM28 cells; under 10 nM with T315I-TCCS cells.

Regarding `Cc1cc(F)c(C(=O)Nc2cc(CN3CCN(C)CC3)cc(C(F)(F)F)c2)cc1C#Cc1cnc2c(Nc3cn[nH]c3)cccn12` [Example 104, 5-((8-((1H-pyrazol-4-yl)amino)imidazo[1,2-a]pyridin-3-yl)ethynyl)-2-fluoro-4-methyl-N-(3-((4-methylpiperazin-1-yl)methyl)-5-(trifluoromethyl)phenyl)benzamide], the GI50 in the experiment on Parental (Ba/F3) is 500 to 5000 nM; in the experiment with T315I-Bcr-Abl (Ba/F3) it was 50 to 500 nM; with KOPM28 cells it was under 10 nM; with TCCS cells it was under 10 nM; with T315I-KOPM28 cells it was over 100 nM; in the experiment with T315I-TCCS cells, 100 nM.

`Cc1cc(F)c(C(=O)Nc2cc(CN3CCN(C)C(=O)C3)cc(C(F)(F)F)c2)cc1C#Cc1cnc2c(Nc3cnn(C)c3)cccn12` [Example 71, 2-fluoro-4-methyl-5-((8-((1-methyl-1H-pyrazol-4-yl)amino)imidazo[1,2-a]pyridin-3-yl)ethynyl)-N-(3-((4-methyl-3-oxopiperazin-1-yl)methyl)-5-(trifluoromethyl)phenyl)benzamide]: the GI50 is over 5000 nM in the experiment with Parental (Ba/F3); 50 to 500 nM in the experiment on T315I-Bcr-Abl (Ba/F3); under 10 nM in the experiment with KOPM28 cells; under 10 nM in the experiment with TCCS cells; over 100 nM with T315I-KOPM28 cells; 100 nM in the experiment on T315I-TCCS cells.

`Cc1cc(F)c(C(=O)Nc2cc(Cn3cncn3)cc(C(C)(C)C#N)c2)cc1C#Cc1cnc2c(Nc3cnn(C)c3)cccn12` [Example 38, N-(3-((1H-1,2,4-triazol-1-yl)methyl)-5-(2-cyanopropan-2-yl)phenyl)-2-fluoro-4-methyl-5-((8-((1-methyl-1H-pyrazol-4-yl)amino)imidazo[1,2-a]pyridin-3-yl)ethynyl)benzamide]: the GI50 in the experiment with Parental (Ba/F3) is over 5000 nM; in the experiment with T315I-Bcr-Abl (Ba/F3), under 50 nM; in the experiment with KOPM28 cells, under 10 nM; in the experiment with TCCS cells it was under 10 nM; in the experiment with T315I-KOPM28 cells, 100 nM; in the experiment with T315I-TCCS cells, under 10 nM.

As for `Cc1cc(F)c(C(=O)Nc2cc(-c3cnn(C)c3)cc(C(F)(F)F)c2)cc1C#Cc1cnc2c(Nc3cnn(C)c3)cccn12` [Example 54, 2-fluoro-4-methyl-N-(3-(1-methyl-1H-pyrazol-4-yl)-5-(trifluoromethyl)phenyl)-5-((8-((1-methyl-1H-pyrazol-4-yl)amino)imidazo[1,2-a]pyridin-3-yl)ethynyl)benzamide], the GI50 in the experiment with Parental (Ba/F3) is over 5000 nM; with T315I-Bcr-Abl (Ba/F3), 50 to 500 nM; with KOPM28 cells it was 100 nM; in the experiment with TCCS cells, under 10 nM; in the experiment with T315I-KOPM28 cells it was over 100 nM; in the experiment with T315I-TCCS cells, 100 nM.

As for `Cc1ccc(C(=O)Nc2cc(CN3CCN(CCO)CC3)cc(C(C)(C)C#N)c2)c(F)c1C#Cc1cnc2c(Nc3cnn(C)c3)cccn12` [Example 12, N-(3-(2-cyanopropan-2-yl)-5-((4-(2-hydroxyethyl)piperazin-1-yl)methyl)phenyl)-2-fluoro-4-methyl-3-((8-((1-methyl-1H-pyrazol-4-yl)amino)imidazo[1,2-a]pyridin-3-yl)ethynyl)benzamide], the GI50 with Parental (Ba/F3) was over 5000 nM; in the experiment on T315I-Bcr-Abl (Ba/F3) it was 50 to 500 nM; in the experiment on KOPM28 cells it was under 10 nM; with TCCS cells, under 10 nM; in the experiment on T315I-KOPM28 cells, over 100 nM; in the experiment on T315I-TCCS cells, 100 nM.

Turning to `Cc1cc(F)c(C(=O)Nc2cc(CN3CCCN(C)CC3)cc(C(C)(C)C#N)c2)cc1C#Cc1cnc2c(Nc3cnn(C)c3)cccn12` [Example 30, N-(3-(2-cyanopropan-2-yl)-5-((4-methyl-1,4-diazepan-1-yl)methyl)phenyl)-2-fluoro-4-methyl-5-((8-((1-methyl-1H-pyrazol-4-yl)amino)imidazo[1,2-a]pyridin-3-yl)ethynyl)benzamide], the GI50 was 500 to 5000 nM with Parental (Ba/F3); 50 to 500 nM in the experiment with T315I-Bcr-Abl (Ba/F3); under 10 nM in the experiment on KOPM28 cells; under 10 nM with TCCS cells; over 100 nM in the experiment on T315I-KOPM28 cells; 100 nM with T315I-TCCS cells.

`Cc1cc(F)c(C(=O)Nc2cc(N3CCN(C)CC3)cc(C(C)(C)C#N)c2)cc1C#Cc1cnc2c(Nc3cnn(C)c3)cccn12` [Example 20, N-(3-(2-cyanopropan-2-yl)-5-(4-methylpiperazin-1-yl)phenyl)-2-fluoro-4-methyl-5-((8-((1-methyl-1H-pyrazol-4-yl)amino)imidazo[1,2-a]pyridin-3-yl)ethynyl)benzamide]: the GI50 in the experiment on Parental (Ba/F3) was 500 to 5000 nM; in the experiment with T315I-Bcr-Abl (Ba/F3), 50 to 500 nM; in the experiment with KOPM28 cells, under 10 nM; with TCCS cells, under 10 nM; in the experiment with T315I-KOPM28 cells, over 100 nM; in the experiment on T315I-TCCS cells, 100 nM.

As to `Cc1cc(F)c(C(=O)Nc2cc(-c3ccncc3)cc(C(C)(C)C#N)c2)cc1C#Cc1cnc2c(Nc3cnn(C)c3)cccn12` [Example 17, N-(3-(2-cyanopropan-2-yl)-5-(pyridin-4-yl)phenyl)-2-fluoro-4-methyl-5-((8-((1-methyl-1H-pyrazol-4-yl)amino)imidazo[1,2-a]pyridin-3-yl)ethynyl)benzamide], the GI50 is over 5000 nM in the experiment with Parental (Ba/F3); 50 to 500 nM in the experiment with T315I-Bcr-Abl (Ba/F3); under 10 nM in the experiment with KOPM28 cells; under 10 nM in the experiment with TCCS cells; 100 nM in the experiment with T315I-KOPM28 cells; 100 nM in the experiment on T315I-TCCS cells.

For `Cc1cc(F)c(C(=O)Nc2ccc(CN3CCC(N(C)C)C3)c(C(F)(F)F)c2)cc1C#Cc1cnc2c(Nc3cn[nH]c3)cccn12` (stereo not drawn) [Example 110, 5-((8-((1H-pyrazol-4-yl)amino)imidazo[1,2-a]pyridin-3-yl)ethynyl)-N-(4-((3-(dimethylamino)pyrrolidin-1-yl)methyl)-3-(trifluoromethyl)phenyl)-2-fluoro-4-methylbenzamide], the GI50 was 500 to 5000 nM in the experiment on Parental (Ba/F3); under 50 nM with T315I-Bcr-Abl (Ba/F3); under 10 nM with KOPM28 cells; under 10 nM in the experiment with TCCS cells; 100 nM in the experiment with T315I-KOPM28 cells; 100 nM in the experiment with T315I-TCCS cells.

For the molecule `Cc1cc(F)c(C(=O)Nc2cc(Oc3ccncc3)cc(C(C)(C)C#N)c2)cc1C#Cc1cnc2c(Nc3cn[nH]c3)cccn12` [Example 83, 5-((8-((1H-pyrazol-4-yl)amino)imidazo[1,2-a]pyridin-3-yl)ethynyl)-N-(3-(2-cyanopropan-2-yl)-5-(pyridin-4-yloxy)phenyl)-2-fluoro-4-methylbenzamide], the concentration for 50% growth inhibition (GI50) in the experiment on Parental (Ba/F3) was 500 to 5000 nM; with T315I-Bcr-Abl (Ba/F3), under 50 nM; with KOPM28 cells it was under 10 nM; in the experiment with TCCS cells, under 10 nM; in the experiment on T315I-KOPM28 cells it was 100 nM; in the experiment with T315I-TCCS cells, 100 nM.

`Cc1cc(F)c(C(=O)Nc2cc(-c3cnn(C)c3)cc(C(C)(C)C#N)c2)cc1C#Cc1cnc2c(Nc3cn[nH]c3)cccn12` [Example 77, 5-((8-((1H-pyrazol-4-yl)amino)imidazo[1,2-a]pyridin-3-yl)ethynyl)-N-(3-(2-cyanopropan-2-yl)-5-(1-methyl-1H-pyrazol-4-yl)phenyl)-2-fluoro-4-methylbenzamide]: the concentration for 50% growth inhibition (GI50) in the experiment with Parental (Ba/F3) is over 5000 nM; in the experiment on T315I-Bcr-Abl (Ba/F3), 50 to 500 nM; with KOPM28 cells, under 10 nM; in the experiment on TCCS cells, under 10 nM; in the experiment with T315I-KOPM28 cells, over 100 nM; with T315I-TCCS cells it was 100 nM.

Regarding `Cc1cc(F)c(C(=O)Nc2cc(OCCCN(C)C)cc(C(F)(F)F)c2)cc1C#Cc1cnc2c(Nc3cnn(C)c3)cccn12` [Example 51, N-(3-(3-(dimethylamino)propoxy)-5-(trifluoromethyl)phenyl)-2-fluoro-4-methyl-5-((8-((1-methyl-1H-pyrazol-4-yl)amino)imidazo[1,2-a]pyridin-3-yl)ethynyl)benzamide], the GI50 with Parental (Ba/F3) is over 5000 nM; with T315I-Bcr-Abl (Ba/F3) it was 50 to 500 nM; in the experiment on KOPM28 cells, under 10 nM; in the experiment on TCCS cells, 100 nM; in the experiment with T315I-KOPM28 cells, 100 nM; in the experiment on T315I-TCCS cells it was 100 nM.

The GI50 is the concentration at which growth is held to half of that of the control.
